Target: T1, caspase 3 (Homo sapiens, UniProt P42574)
T1 construct: His tag (C); made in house; host or cells: E. coli
T1 sequence (P42574 29-175 limits assumed): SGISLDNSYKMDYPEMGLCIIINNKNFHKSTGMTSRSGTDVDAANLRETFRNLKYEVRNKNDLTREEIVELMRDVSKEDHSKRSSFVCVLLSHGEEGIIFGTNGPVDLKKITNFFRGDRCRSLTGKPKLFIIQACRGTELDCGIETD
T1 sequence (P42574 176-277 limits assumed): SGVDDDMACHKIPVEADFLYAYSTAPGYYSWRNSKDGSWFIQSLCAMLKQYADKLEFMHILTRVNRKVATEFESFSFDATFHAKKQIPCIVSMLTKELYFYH
Assay: Determination of probe IC50: caspase inhibition assay, cleavage of fluorogenic substrate Ac-DEVD-AFC
Assay type: biochemical
Conditions: substrate Ac-DEVD-AFC 25 μM; caspase added last; cleavage monitored 90 minutes, ex 400 nm / em 505 nm
Experimental: This standard pharmacological test procedure to assess the inhibition of recombinant caspase 3 activity of selected compounds was adapted from Thornbery, N., J. Biol. Chem. 1997 272(29) 17907-17911 and Stennicke, H. R. et al., J. Biol. Chem. 1997 272(41) 25719-25723. The procedure used and results obtained are briefly described below.
Caspase 3 was assayed at 23° C. (room temp) in 96-well plates using the internally quenched tetrapeptide substrate N-acetyl-aspartyl-glutamyl-valyl-aspartate-7-amino-4-trifluoromethyl coumarin (Ac-DEVD-AFC purchased from Biomol). The assays are conducted at pH 7.2 in a buffered system containing 20 mM PIPES, 100 mM NaCl, 1 mM EDTA, 0.1% CHAPS, 10% sucrose and 5 mM L-cysteine. The final concentration of the substrate is 25 μM. Enzymic cleavage between the aspartate and the AFC fluorophore liberates 7-amino-4-trifluoromethyl coumarin which is detected using an excitation wavelength of 400 nm and an emission wavelength of 505 nm in a SpectraMax GeminiXS plate reader operated at room temperature. A steady state rate of substrate cleavage is obtained for analysis. […]
The substrate Ac-DEVD-AFC (25 μM) was added to varying inhibitor (probe) concentrations ranging from 20 μM to 2 nM. […] The cleavage of the substrate by the enzyme (caspase) was monitored continuously for 90 minutes by exciting the substrate at 400 nm and monitoring the fluorescence at emission at 505 nm. […]

| IC50 [nM] | SMILES |
| --- | --- |
| 10 | CN1C(=O)C(=O)c2cc(S(=O)(=O)N3CCC[C@H]3CNC(=O)c3ccc(-c4c5ccc(=O)cc-5oc5cc(O)ccc45)c(C(=O)O)c3)ccc21 [Example 1, 2-(6-Hydroxy-3-oxo-3H-xanthen-9-yl)-5-{[({(2S)-1-[(1-methyl-2,3-dioxo-2,3-dihydro-1H-indol-5-yl)sulfonyl]pyrrolidin-2-yl}methyl)amino]carbonyl}benzoic acid] |
| 15 | CN1C(=O)C(=O)c2cc(S(=O)(=O)N3CCC[C@H]3CNC(=O)CCCCCNC(=O)c3ccc(-c4c5ccc(=O)cc-5oc5cc(O)ccc45)c(C(=O)O)c3)ccc21 [Example 2, 2-(6-Hydroxy-3-oxo-3H-xanthen-9-yl)-5-[({6-[({(2S)-1-[(1-methyl-2,3-dioxo-2,3-dihydro-1H-indol-5-yl)sulfonyl]pyrrolidin-2-yl}methyl)amino]-6-oxohexyl}amino)carbonyl]benzoic acid] |
